These are literature values, as cited in patent US20220347150A1, “TASIMELTEON USE IN TREATING SLEEP ABERRATIONS” (Vanda Pharmaceuticals Inc., priority 2019, published 2022).

The conditions of series [1]: subjects with a 5-hour advance in sleep-wake cycle; treatment relative to placebo; reported in US 20090105333A1 (WO2007/137244).
The conditions of series [2]: preclinical models of acute phase-shifting and chronic re-entrainment.

Take `CCC(=O)NC[C@@H]1C[C@H]1c1cccc2c1CCO2` [tasimelteon, Tasimelteon]: in series [1], the “shifting dim light melatonin onset” value was “positive outcomes” and the sleep efficacy result was “positive outcomes”. Also, the chronobiotic activity result in series [2] is given as “potent chronobiotic activity”.
